Values joined by “and” are separate entries in the source; they are usually repeats but may differ in a detail not shown here. Equal entries are not always repeated.
Tests used:
[1] = system: NO production in LPS-activated RAW 264.7 macrophage murine cells; experiment: Inhibition of NO (nitrite) release, Griess reaction; type: cell-based
Protocol: The concentrations of nitrites were determined by the Griess reaction.
A stock solution was frozen and stored at […]. Before the experiments, this solution was diluted in cell-culture medium to the adequate concentrations for each experiment. […] For nitrite assay, subcytotoxic concentrations (3/4IC50, 1/2IC50, and 1/4IC50), were used to ensure that the NO inhibitory potential was not due to a possible cytotoxic effect. The concentrations of 3/4IC50, 1/2IC50, and 1/4IC50 were used for the cell-cycle analysis. All experiments were measured and compared with control (untreated cells after 24, 48, or 72 h of treatment.)
Nitrites production was analyzed through the Griess reaction. This nitrite concentration was used as an indicator of NO production.[35] Briefly, RAW 264.7 cells were plated at 6 × 10^3 cells/well in 24-well cell culture plates and supplemented with 10 μg/mL of lipopolysaccharide (LPS). […] The supernatants were collected at 48 and 72 h, to determine their nitrite concentrations and/or stored at −80 °C for further use.
The Griess reaction was performed taking 150 μL of supernatant test samples or sodium nitrite standard (0–120 μM) and mixed with 25 μL of Griess reagent A (0.1% N,N-(1-naphthyl) ethylenediaminedihydrochloride) and 25 μL of Griess reagent B (1% sulfanilamide in 5% of phosphoric acid), in a 96-well plate. After 15 min of incubation at room temperature, the absorbance was measured at 540 nm in an ELISA plate reader (Tecan Sunrise MR20–301, TECAN, Austria). The absorbance was referred to a nitrite standard curve to determine the concentration of nitrite in the supernatant of each experimental sample. The percentage of NO production was determined, assigning 100% at the increase between negative control (untreated cells) and positive control (cells only treated with 10 μg/mL of LPS).

[2] = system: LPS-stimulated RAW 264.7 macrophage murine cells; experiment: RAW 264.7 cell-cycle distribution, PI flow cytometry; type: cell-based; conditions: for effect on cell-cycle arrest induced by LPS: 72 h of treatment
Excerpt: Since the anti-inflammatory effect can be related to the ability to change the inflammatory processes induced by LPS in RAW 264.7 cells, including monocyte/macrophage cell differentiation and cell-cycle arrest,[22] we analyzed the cell-cycle distribution in these cells in response to LPS and compounds 16 and 21. The two compounds with the highest antiproliferative and important NO inhibitory effects were selected for this assay. For this purpose, flow cytometry by propidium iodide (PI) staining was used to measure DNA ploidy as well as the distribution of cells in every phase of the cell cycle (Figure S2).
A stock solution was frozen and stored at […]. Before the experiments, this solution was diluted in cell-culture medium to the adequate concentrations for each experiment. For the antiproliferative assay in all cell lines, we determined the concentrations of compounds required for 20, 50, and 80% of inhibition cell growth, IC20, IC50, and IC80, concentrations, respectively, to analyze the complete range of cytotoxicity and to determine the graduated or acute response to these compounds. For nitrite assay, subcytotoxic concentrations (3/4IC50, 1/2IC50, and 1/4IC50), were used to ensure that the NO inhibitory potential was not due to a possible cytotoxic effect. The concentrations of 3/4IC50, 1/2IC50, and 1/4IC50 were used for the cell-cycle analysis. All experiments were measured and compared with control (untreated cells after 24, 48, or 72 h of treatment.)
Cellular subpopulations, with different DNA contents, were visualized, using a fluorescence-activated cell sorter (FACS) at 488 nm in an Epics XL flow cytometer (Coulter Corporation, Hialeah, FL, USA). Changes in DNA levels are characteristic of cell-cycle arrest and cell differentiation.[36] […] Several controls were analyzed in parallel. […] Data were analyzed to determine the percentage of cells in each cell-cycle phase (G0/G1, S, and G2/M).

B16-F10 cells = experiment: Annexin V-FITC/propidium iodide apoptosis flow cytometry; type: cell-based, murine; conditions: for apoptotic effect: B16-F10, after 24 h of treatment
Excerpt: Cytometric FACS analysis using annexin V-FITC and PI staining was used to differentiate four cell populations (Figure 5): normal cells (annexin V^– and PI^–), early apoptotic cells (annexin V^+ and PI^–), late apoptotic cells (annexin V^+ and PI^+), and necrotic cells (annexin V^– and PI^+).[33]
To confirm the proapoptotic effect of compounds 16 and 22, annexin V and PI double staining was detected with flow cytometry. An early indicator of apoptosis is the translocation of the membrane phospholipid phosphatidylserine from the cytoplasmic interface to the external surface of the plasmatic membrane. The phospholipid phosphatidylserine that accumulates on the external plasmatic membrane can be detected by annexin V/PI is a fluorescent dye that binds to the nuclei of dead cells. Apoptosis was assessed by flow cytometry using a FACScan (fluorescence-activated cell sorter) flow cytometer (Coulter Corporation, Hialeah, FL, USA).[37],[38] For this assay, 5 × 10^4 B16-F10 cells were plated in 24-well plates with 1.5 mL of medium and incubated for 24 h. […] Cells were collected and resuspended in a binding buffer (10 mM HEPES/NaOH, pH 7.4, 140 mM NaCl, 2.5 mM CaCl2). Annexin V-FITC conjugate (1 μg/mL) was then added and incubated for 15 min at room temperature in darkness. Just before the analysis by flow cytometry, cells were stained with 5 μL of 1 mg/mL PI solution. In each experiment, approximately 10 × 10^3 cells were analyzed, and the experiment was duplicated twice.

[3] = B16-F10, 48 h, IC50 concentration
[4] = B16-F10, 48 h, IC80 concentration
[5] = B16-F10, 72 h, IC50 concentration
[6] = B16-F10, 72 h, IC80 concentration

SMILES | inhibition of NO release ([1]; 48 h, 1/2IC50 concentration) [%] | inhibition of NO release ([1]; 48 h, 3/4IC50 concentration) | inhibition of NO release ([1]; 72 h, 3/4IC50 concentration) [%] | effect on cell-cycle arrest induced by LPS [2] | proportion of cells in the S phase ([2]; LPS + compound, 72 h, 1/4IC50 to 3/4IC50, with respect to positive control) [%] | early apoptosis (Q4, annexin V+ PI-) (B16-F10 cells; [3]) [%] | late apoptosis (Q2, annexin V+ PI+) (B16-F10 cells; [3]) [%] | total apoptosis (B16-F10 cells; [3]) [%] | early apoptosis (Q4, annexin V+ PI-) (B16-F10 cells; [4]) [%] | late apoptosis (Q2, annexin V+ PI+) (B16-F10 cells; [4]) [%] | total apoptosis (B16-F10 cells; [4]) [%] | early apoptosis (Q4, annexin V+ PI-) (B16-F10 cells; [5]) [%] | late apoptosis (Q2, annexin V+ PI+) (B16-F10 cells; [5]) [%] | total apoptosis (B16-F10 cells; [5]) [%] | early apoptosis (Q4, annexin V+ PI-) (B16-F10 cells; [6]) [%] | late apoptosis (Q2, annexin V+ PI+) (B16-F10 cells; [6]) [%] | total apoptosis (B16-F10 cells; [6]) [%] | apoptotic effect (B16-F10 cells)
COC(=O)[C@]1(C)CCC[C@@]2(C)[C@H]1CC=C1C(C)=C(C(C)C)C(=O)C[C@@H]12 [Compound 16, (1R,4aR,10aR)-Methyl 7-isopropyl-1,4a,8-trimethyl-6-oxo-1,2,3,4,4a,4b,5,6,10,10a-decahydrophenanthrene-1-carboxylate] | 59.95 | 85.13% | 80 | could revert the cell-cycle arrest induced by LPS | 69 | 3.73 | 9.40 | 13.13 | 12.06 | 14.53 | 26.6 | 0.06 | 7.63 | 7.7 | 27.63 | 21.13 | 48.76 | did not exert a significant effect
COC(=O)[C@]1(C)CCC[C@]2(C)c3cc(O)c(C=O)c(C)c3CC[C@@H]12 [Compound 21, (1R,4aS,10aR)-Methyl 7-formyl-6-hydroxy-1,4a,8-trimethyl-1,2,3,4,4a,9,10,10a-octahydrophenanthrene-1-carboxylate] | – | 76.49% and 76% | 91 | could revert the cell-cycle arrest induced by LPS | – | 6.93 | 18.30 | 25.23 | 5.73 | 27.13 | 32.86 | 5.33 | 17.03 | 22.36 | 23.56 | 17.66 | 41.23 | did not exert a significant effect

Source: publication PMC9623576, “Semisynthesis and Evaluation of Anti-Inflammatory Activity of the Cassane-Type Diterpenoid Taepeenin F and of Some Synthetic Intermediates” (Journal of Natural Products, 2022)
